Data: patent US20140227333A1, “DRY ACTIVE OXYGEN TECHNOLOGY” (ECOLAB USA INC., priority 2013, published 2014)
Read-outs that look alike come from different tables or passages of the source.

How the values were obtained:
[1] = Titration of hydrogen peroxide concentration, initially and 24 hours later (stability of the active oxidant); assay type: physicochemical; details: titrated initially and 24 hours later
Procedure: The dry-to-touch powder compositions generated in Example 2 were further analyzed for stability of the active oxidant. The compositions were titrated initially and 24 hours later, giving nearly the same resulting amount of hydrogen peroxide concentration in the untreated liquid composition (35%) and the dry-to-touch powder composition (31%).

[2] = cited from earlier work

Question: Which hydrogen peroxide concentration [1] does the source give for `OO` [liquid hydrogen peroxide (35%), hydrogen peroxide] here?
Answer: Its hydrogen peroxide concentration is 35%.

Question: With polyethyleneimine [PEI] as the compound, how does the PEI protonated ([2]; pH 2) read?
Answer: The PEI protonated was “about 73%”.

Question: What about the PEI protonated ([2]; pH 4) of the same compound?
Answer: Its PEI protonated is “about 50%”.

Question: And the PEI protonated ([2]; pH 5)?
Answer: The PEI protonated was “about 33%”.

Question: And the PEI protonated ([2]; pH 8)?
Answer: Its PEI protonated is “about 25%”.

Question: What about the PEI protonated ([2]; pH 10) of the same compound?
Answer: Its PEI protonated is “about 4%”.
